Laboratory results taken from ChEMBL document CHEMBL1938346, “Structure-activity studies of diazabicyclo[3.3.0]octane-substituted pyrazines and pyridines as potent α4β2 nicotinic acetylcholine receptor ligands” (J Med Chem, 2011).

Tests used:
[1] = biological target: Neuronal acetylcholine receptor; alpha4/beta2 (Rattus norvegicus, UniProt P09483+P12390); experiment: Displacement of [3H]cytisine from nAChR alpha4beta2 in rat brain membrane; format: cell membranes
[2] = Bioavailability in rat at 2 umol/kg, ip; format: ADME, organism-based; conditions: in vivo
[3] = Ratio drug uptake in brain to plasma of rat at 2 umol/kg, ip measured after 0.75 hrs; format: ADME, organism-based; conditions: read-out: BPR
[4] = Half life in rat at 2 umol/kg, ip measured after 8 hrs; format: ADME, organism-based; conditions: in vivo
[5] = Half life in rat at 2 umol/kg, po measured after 8 hrs; format: ADME, organism-based; conditions: in vivo
[6] = Drug uptake in rat plasma at 2 umol/kg, ip measured after 0.75 hrs; format: ADME, organism-based
[7] = Agonist activity at nAChR alpha3beta4* expressed in human IMR32 cells assessed as calcium flux by FLIPR assay; format: functional, cell-based
[8] = Drug uptake in rat brain at 2 umol/kg, ip measured after 0.75 hrs; format: ADME, organism-based; conditions: read-out: Drug uptake
[9] = Oral bioavailability in rat at 2 umol/kg; format: ADME, organism-based; conditions: in vivo
[10] = Half life in rat at 2 umol/kg, iv measured after 8 hrs; format: ADME, organism-based; conditions: in vivo
[11] = Agonist activity at nAChR alpha3beta4* expressed in human IMR32 cells assessed as calcium flux by FLIPR assay relative to nicotine; format: functional; conditions: IMR-32

Sequence of Neuronal acetylcholine receptor; alpha4/beta2 (P09483 whole entry): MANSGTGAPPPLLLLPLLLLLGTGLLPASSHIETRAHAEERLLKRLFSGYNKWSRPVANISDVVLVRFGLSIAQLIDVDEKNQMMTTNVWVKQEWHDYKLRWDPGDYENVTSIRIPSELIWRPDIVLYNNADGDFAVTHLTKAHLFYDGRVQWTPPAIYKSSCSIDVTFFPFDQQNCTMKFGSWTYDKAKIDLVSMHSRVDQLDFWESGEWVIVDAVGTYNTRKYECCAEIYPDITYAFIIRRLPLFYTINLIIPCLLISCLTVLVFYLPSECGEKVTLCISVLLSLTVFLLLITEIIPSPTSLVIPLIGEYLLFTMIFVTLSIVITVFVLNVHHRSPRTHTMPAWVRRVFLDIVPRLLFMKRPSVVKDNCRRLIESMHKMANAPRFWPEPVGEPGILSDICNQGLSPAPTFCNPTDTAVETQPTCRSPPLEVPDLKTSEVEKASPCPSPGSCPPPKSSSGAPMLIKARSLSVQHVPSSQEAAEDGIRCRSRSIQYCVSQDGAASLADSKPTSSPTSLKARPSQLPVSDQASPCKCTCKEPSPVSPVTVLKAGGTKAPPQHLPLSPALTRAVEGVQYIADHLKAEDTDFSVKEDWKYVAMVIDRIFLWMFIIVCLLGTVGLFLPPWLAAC
Sequence of Neuronal acetylcholine receptor; alpha4/beta2 (P12390 whole entry): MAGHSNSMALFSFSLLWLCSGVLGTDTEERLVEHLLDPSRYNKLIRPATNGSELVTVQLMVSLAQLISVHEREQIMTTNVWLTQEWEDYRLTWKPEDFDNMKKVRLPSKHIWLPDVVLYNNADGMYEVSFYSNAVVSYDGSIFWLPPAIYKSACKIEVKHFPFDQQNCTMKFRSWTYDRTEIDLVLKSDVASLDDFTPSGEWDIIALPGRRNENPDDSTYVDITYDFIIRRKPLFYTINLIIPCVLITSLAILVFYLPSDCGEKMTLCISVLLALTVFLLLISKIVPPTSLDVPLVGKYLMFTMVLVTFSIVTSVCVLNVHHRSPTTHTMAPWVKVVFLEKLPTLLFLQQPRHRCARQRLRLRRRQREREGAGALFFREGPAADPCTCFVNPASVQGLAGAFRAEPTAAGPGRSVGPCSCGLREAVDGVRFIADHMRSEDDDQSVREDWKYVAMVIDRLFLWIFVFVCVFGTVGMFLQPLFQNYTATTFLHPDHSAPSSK

Row | SMILES | Ki ([1]; read-out: Ki) | EC50 ([7]; IMR-32, read-out: EC50) | Emax [11] | other results
1 | c1cncc(N2C[C@H]3CNC[C@H]3C2)c1 | 0.13 nM |  |  | 
2 | c1cncc(N2C[C@H]3CCN[C@H]3C2)c1 | 0.34 nM |  |  | 
3 | c1cncc(N2C[C@@H]3CCN[C@@H]3C2)c1 | 2.9 nM |  |  | 
4 | c1cnc(N2C[C@H]3CNC[C@H]3C2)cn1 | 7.8 nM |  |  | 
5 | Cc1ccccc1CNC(=O)c1cncc(N2C[C@@H]3CCN[C@@H]3C2)n1 | > 10000 nM |  |  | Ki ([1]; read-out: pKi (converted)): > 10000 nM
6 | Cc1ccccc1CNC(=O)c1cncc(N2CC[C@@H]3CNC[C@@H]32)n1 | 5600 nM |  |  | 
7 | Cc1cccc(NC(=O)c2cncc(N3C[C@@H]4CCN[C@@H]4C3)n2)c1 | 2630 nM |  |  | 
8 | Cc1ccccc1CNC(=O)c1cncc(N2CC[C@H]3CNC[C@H]32)c1 | 871 nM |  |  | 
9 | O=C(c1cncc(N2C[C@H]3CNC[C@H]3C2)c1)N1CCc2ccccc2C1 | 0.3 nM | > 100000 nM | 7% | 
10 | O=C(Nc1cccc(I)c1)c1cncc(N2C[C@H]3CNC[C@H]3C2)c1 | 0.02 nM | > 100000 nM | 6% | Ki ([1]; read-out: pKi (converted)): 0.0245 nM
11 | CC(C)Oc1cccc(NC(=O)c2cncc(N3C[C@H]4CNC[C@H]4C3)c2)c1 | 1.1 nM | > 100000 nM | 10% | 
12 | O=C(Nc1ccc(Cl)cc1)c1cncc(N2C[C@H]3CNC[C@H]3C2)c1 | 0.2 nM | > 100000 nM | 8% | 
13 | Cc1cccc(NC(=O)c2cncc(N3C[C@H]4CNC[C@H]4C3)c2)c1 | 0.1 nM | > 100000 nM | 6% | Kp at 0.75 h [3]: 0.12; concentration at 0.75 h [6]: 52.1 ng/mL; concentration at 0.75 h [8]: 6.4 ng/mL
14 | Cc1cc(C)cc(NC(=O)c2cncc(N3C[C@H]4CNC[C@H]4C3)c2)c1 | 0.3 nM | > 100000 nM | 6% | Ki ([1]; read-out: pKi (converted)): 0.339 nM
15 | COc1cc(NC(=O)c2cncc(N3C[C@H]4CNC[C@H]4C3)c2)cc(OC)c1 | 0.3 nM | > 100000 nM | 10% | Kp at 0.75 h [3]: 0.07; concentration at 0.75 h [6]: 74.5 ng/mL; concentration at 0.75 h [8]: 5.5 ng/mL
16 | O=C(Nc1cc(F)cc(F)c1)c1cncc(N2C[C@H]3CNC[C@H]3C2)c1 | 0.04 nM | > 100000 nM | 18% | 
17 | c1ccc(COc2cncc(N3C[C@H]4CNC[C@H]4C3)n2)cc1 |  |  |  | Kp at 0.75 h [3]: 3.27; concentration at 0.75 h [6]: 23.5 ng/mL; concentration at 0.75 h [8]: 76.8 ng/mL

Further lines, with some results ahead:

Row | Ki ([1]; read-out: Ki) | EC50 ([7]; IMR-32, read-out: EC50) | SMILES | Emax [11] | other results
18 | 1.7 nM | > 100000 nM | Cc1ccccc1CNC(=O)c1cncc(N2C[C@H]3CNC[C@H]3C2)n1 | 17% | bioavailability [2]: 77%; Kp at 0.75 h [3]: 0.04; half-life [4]: 2.4 h; half-life [5]: 2.1 h; concentration at 0.75 h [6]: 178 ng/mL; concentration at 0.75 h [8]: 8 ng/mL; bioavailability [9]: 35%; half-life [10]: 1.7 h
19 | 7.6 nM | > 100000 nM | Cc1cccc(NC(=O)c2cncc(N3C[C@H]4CNC[C@H]4C3)n2)c1 | 10% | 
20 | 2.7 nM | > 100000 nM | Cc1ccccc1CNC(=O)c1cncc(N2C[C@H]3CNC[C@H]3C2)c1 | 8% | Kp at 0.75 h [3]: 0.02; concentration at 0.75 h [6]: 142 ng/mL; concentration at 0.75 h [8]: 3.3 ng/mL
21 | 3.9 nM | > 100000 nM | O=C(NCc1ccccc1)c1cncc(N2C[C@H]3CNC[C@H]3C2)n1 | 10% | Kp at 0.75 h [3]: 0.04; concentration at 0.75 h [6]: 81.3 ng/mL; concentration at 0.75 h [8]: 3 ng/mL
22 | 69 nM | > 100000 nM | O=C(NCCc1ccccc1)c1cncc(N2C[C@H]3CNC[C@H]3C2)n1 | 13% | 
23 | 174 nM |  | CN(Cc1ccccc1)C(=O)c1cncc(N2C[C@H]3CNC[C@H]3C2)n1 |  | 
24 | 132 nM |  | CC(NC(=O)c1cncc(N2C[C@H]3CNC[C@H]3C2)n1)c1ccccc1 (stereo not given in full) |  | 
25 | 2.5 nM | > 100000 nM | O=C(NCc1ccc(Cl)c(Cl)c1)c1cncc(N2C[C@H]3CNC[C@H]3C2)n1 | 12% | 
26 | 0.7 nM | > 100000 nM | O=C(Nc1cccc(Cl)c1)c1cncc(N2C[C@H]3CNC[C@H]3C2)n1 | 26% | 
27 | 3.3 nM | > 100000 nM | O=C(Nc1cccc(I)c1)c1cncc(N2C[C@H]3CNC[C@H]3C2)n1 | 7% | 
28 | 35 nM |  | CC(C)c1cccc(NC(=O)c2cncc(N3C[C@H]4CNC[C@H]4C3)n2)c1 |  | 
29 | 26 nM | > 100000 nM | CC(C)Oc1cccc(NC(=O)c2cncc(N3C[C@H]4CNC[C@H]4C3)n2)c1 | 7% | 
30 | 51 nM |  | Cc1cc(C)cc(NC(=O)c2cncc(N3C[C@H]4CNC[C@H]4C3)n2)c1 |  | 
31 | 14 nM | > 100000 nM | O=C(Nc1cc(F)cc(F)c1)c1cncc(N2C[C@H]3CNC[C@H]3C2)n1 | 8% | 
32 | 39 nM | > 100000 nM | C[C@H](NC(=O)c1cncc(N2C[C@H]3CNC[C@H]3C2)c1)c1ccccc1 | 5% | 
33 | 2.2 nM | > 100000 nM | C[C@@H](NC(=O)c1cncc(N2C[C@H]3CNC[C@H]3C2)c1)c1ccccc1 | 6% | Kp at 0.75 h [3]: 0.15; concentration at 0.75 h [6]: 139 ng/mL; concentration at 0.75 h [8]: 20.6 ng/mL
34 | 3.9 nM | > 100000 nM | CN(Cc1ccccc1)C(=O)c1cncc(N2C[C@H]3CNC[C@H]3C2)c1 | 14% | Kp at 0.75 h [3]: 0.07; concentration at 0.75 h [6]: 89.8 ng/mL; concentration at 0.75 h [8]: 6 ng/mL
35 | 0.9 nM | > 100000 nM | O=C(NCc1ccccc1C(F)(F)F)c1cncc(N2C[C@H]3CNC[C@H]3C2)c1 | 4% | Kp at 0.75 h [3]: 0.04; concentration at 0.75 h [6]: 164 ng/mL; concentration at 0.75 h [8]: 6.9 ng/mL
36 | 17 nM | > 100000 nM | O=C(NC1CCc2ccccc21)c1cncc(N2C[C@H]3CNC[C@H]3C2)c1 (stereo not given in full) | 10% | 
37 | 0.8 nM | 15800 nM | O=C(NCCc1ccccc1F)c1cncc(N2C[C@H]3CNC[C@H]3C2)c1 | 6% | EC50 ([7]; IMR-32, read-out: pEC50 (converted)): 15800 nM
